Reference: ChEMBL document CHEMBL4507291 (2021)

Key:
[1] = target: Protein-tyrosine kinase 6 (Homo sapiens) (UniProt Q13882)
[2] = target: Mitogen-activated protein kinase 1 (Homo sapiens) (UniProt P28482)
[3] = target: Mitogen-activated protein kinase kinase kinase 20 (Homo sapiens) (UniProt Q9NYL2)
[4] = target: 3-phosphoinositide-dependent protein kinase 1 (Homo sapiens) (UniProt O15530)
[5] = system: Receptor-type tyrosine-protein kinase FLT3 (Homo sapiens), P36888 [UNDEFINED MUTATION]
[6] = organism: Rattus norvegicus; conditions: Compound concentration 10.0 uM
[7] = system: Tyrosine-protein kinase ABL1 (Homo sapiens), P00519 [F317I]
[8] = target: Receptor tyrosine-protein kinase erbB-4 (Homo sapiens) (UniProt Q15303)
[9] = target: Serine/threonine-protein kinase SIK3 (Homo sapiens) (UniProt Q9Y2K2)
Serine/threonine-protein kinase SIK3 (Homo sapiens), sequence (Q9Y2K2 whole entry, looked up): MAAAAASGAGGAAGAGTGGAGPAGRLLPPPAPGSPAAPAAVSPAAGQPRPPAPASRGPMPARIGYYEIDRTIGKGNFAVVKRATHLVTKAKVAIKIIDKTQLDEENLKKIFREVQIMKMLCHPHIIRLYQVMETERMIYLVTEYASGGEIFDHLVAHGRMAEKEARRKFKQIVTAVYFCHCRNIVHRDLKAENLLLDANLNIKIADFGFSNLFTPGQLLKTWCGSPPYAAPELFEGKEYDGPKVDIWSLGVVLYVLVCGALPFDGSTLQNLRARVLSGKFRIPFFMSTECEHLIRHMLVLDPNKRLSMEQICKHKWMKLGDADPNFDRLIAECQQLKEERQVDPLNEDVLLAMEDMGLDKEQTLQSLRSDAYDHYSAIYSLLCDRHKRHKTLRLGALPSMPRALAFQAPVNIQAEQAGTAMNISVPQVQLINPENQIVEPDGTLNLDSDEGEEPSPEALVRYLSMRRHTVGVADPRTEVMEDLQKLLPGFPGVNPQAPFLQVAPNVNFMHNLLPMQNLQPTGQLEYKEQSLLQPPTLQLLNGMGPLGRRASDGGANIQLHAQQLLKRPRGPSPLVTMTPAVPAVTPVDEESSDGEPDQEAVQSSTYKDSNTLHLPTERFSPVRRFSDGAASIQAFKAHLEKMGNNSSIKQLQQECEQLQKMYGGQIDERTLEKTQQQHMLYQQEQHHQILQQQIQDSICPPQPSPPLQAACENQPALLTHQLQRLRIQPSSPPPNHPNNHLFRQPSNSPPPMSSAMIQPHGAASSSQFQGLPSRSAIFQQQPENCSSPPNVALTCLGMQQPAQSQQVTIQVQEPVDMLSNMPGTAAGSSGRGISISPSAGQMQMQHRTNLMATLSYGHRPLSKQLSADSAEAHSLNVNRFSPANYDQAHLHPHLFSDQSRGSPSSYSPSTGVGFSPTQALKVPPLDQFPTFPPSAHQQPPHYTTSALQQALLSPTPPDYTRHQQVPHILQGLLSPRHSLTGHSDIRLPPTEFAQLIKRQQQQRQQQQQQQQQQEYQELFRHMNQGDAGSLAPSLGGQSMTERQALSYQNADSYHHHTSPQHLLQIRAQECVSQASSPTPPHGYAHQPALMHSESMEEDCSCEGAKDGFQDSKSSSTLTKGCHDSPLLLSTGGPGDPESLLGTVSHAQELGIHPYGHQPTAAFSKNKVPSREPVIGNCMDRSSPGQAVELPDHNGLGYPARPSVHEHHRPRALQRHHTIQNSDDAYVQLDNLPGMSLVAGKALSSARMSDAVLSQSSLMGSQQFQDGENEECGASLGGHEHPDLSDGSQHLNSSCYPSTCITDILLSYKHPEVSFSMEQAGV

[10] = system: Tyrosine-protein kinase ABL1 (Homo sapiens), P00519 [T315I]
[11] = target: T1, MAP/microtubule affinity-regulating kinase 4 (Homo sapiens) (UniProt Q96L34)
T1 sequence (whole entry): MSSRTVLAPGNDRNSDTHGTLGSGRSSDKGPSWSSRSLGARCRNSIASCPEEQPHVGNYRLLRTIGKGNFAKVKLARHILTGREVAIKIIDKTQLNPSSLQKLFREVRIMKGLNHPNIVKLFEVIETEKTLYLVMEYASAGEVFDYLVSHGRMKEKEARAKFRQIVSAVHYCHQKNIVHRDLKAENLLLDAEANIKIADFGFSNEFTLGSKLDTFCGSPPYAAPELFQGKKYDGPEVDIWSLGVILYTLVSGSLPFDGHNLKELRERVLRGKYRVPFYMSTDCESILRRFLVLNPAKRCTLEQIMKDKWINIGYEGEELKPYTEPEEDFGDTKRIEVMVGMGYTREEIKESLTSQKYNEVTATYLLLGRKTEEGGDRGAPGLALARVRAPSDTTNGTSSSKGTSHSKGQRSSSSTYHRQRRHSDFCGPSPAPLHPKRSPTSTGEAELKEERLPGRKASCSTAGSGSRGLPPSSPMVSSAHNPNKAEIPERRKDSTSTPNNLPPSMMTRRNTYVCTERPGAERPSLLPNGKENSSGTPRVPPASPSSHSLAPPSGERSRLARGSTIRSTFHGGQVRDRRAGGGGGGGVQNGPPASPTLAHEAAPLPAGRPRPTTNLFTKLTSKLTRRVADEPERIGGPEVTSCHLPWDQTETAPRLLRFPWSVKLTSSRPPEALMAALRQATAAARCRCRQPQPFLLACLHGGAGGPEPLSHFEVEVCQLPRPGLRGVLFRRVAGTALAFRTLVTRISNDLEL

[12] = target: Serine/threonine-protein kinase ICK (Homo sapiens) (UniProt Q9UPZ9)
Serine/threonine-protein kinase ICK (Homo sapiens), sequence (Q9UPZ9 whole entry): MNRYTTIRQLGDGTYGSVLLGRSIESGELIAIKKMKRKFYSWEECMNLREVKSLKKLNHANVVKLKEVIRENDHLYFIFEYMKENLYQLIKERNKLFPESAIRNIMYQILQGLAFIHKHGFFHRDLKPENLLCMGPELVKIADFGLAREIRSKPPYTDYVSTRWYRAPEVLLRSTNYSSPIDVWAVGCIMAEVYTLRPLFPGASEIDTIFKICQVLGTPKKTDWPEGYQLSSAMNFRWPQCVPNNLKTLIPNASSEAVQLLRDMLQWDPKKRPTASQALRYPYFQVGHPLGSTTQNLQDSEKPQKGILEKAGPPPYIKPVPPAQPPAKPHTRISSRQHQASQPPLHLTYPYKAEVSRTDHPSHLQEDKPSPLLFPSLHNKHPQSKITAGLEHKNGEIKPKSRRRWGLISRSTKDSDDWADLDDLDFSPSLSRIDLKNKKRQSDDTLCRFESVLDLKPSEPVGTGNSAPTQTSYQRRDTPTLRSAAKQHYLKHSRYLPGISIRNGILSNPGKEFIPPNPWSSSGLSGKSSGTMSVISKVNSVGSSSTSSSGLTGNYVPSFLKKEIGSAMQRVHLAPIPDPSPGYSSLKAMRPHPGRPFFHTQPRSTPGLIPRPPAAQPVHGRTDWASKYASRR

[13] = target: NUAK family SNF1-like kinase 2 (Homo sapiens) (UniProt Q9H093)
[14] = target: D(3) dopamine receptor (Homo sapiens) (UniProt P35462); conditions: Compound concentration 10.0 uM
D(3) dopamine receptor (Homo sapiens), sequence (P35462 whole entry): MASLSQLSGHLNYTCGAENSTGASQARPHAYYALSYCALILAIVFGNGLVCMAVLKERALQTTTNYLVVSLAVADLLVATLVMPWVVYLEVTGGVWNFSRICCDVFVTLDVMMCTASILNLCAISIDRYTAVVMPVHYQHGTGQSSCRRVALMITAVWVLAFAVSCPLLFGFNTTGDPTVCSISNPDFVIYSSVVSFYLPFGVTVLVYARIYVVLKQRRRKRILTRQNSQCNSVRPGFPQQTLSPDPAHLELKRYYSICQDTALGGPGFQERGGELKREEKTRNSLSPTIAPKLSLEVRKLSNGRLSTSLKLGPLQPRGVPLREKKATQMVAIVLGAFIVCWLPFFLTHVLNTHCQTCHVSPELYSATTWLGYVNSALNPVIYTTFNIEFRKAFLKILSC

[15] = target: Sigma intracellular receptor 2 (Homo sapiens, UniProt Q5BJF2); assay: GPCRScan assay: inhibition of Sigma 2; design: radioligand conc. used [nm] 5.0, parental cells HEKT
[16] = target: Receptor-interacting serine/threonine-protein kinase 4 (Homo sapiens) (UniProt P57078)
Receptor-interacting serine/threonine-protein kinase 4 (Homo sapiens), sequence (P57078 whole entry): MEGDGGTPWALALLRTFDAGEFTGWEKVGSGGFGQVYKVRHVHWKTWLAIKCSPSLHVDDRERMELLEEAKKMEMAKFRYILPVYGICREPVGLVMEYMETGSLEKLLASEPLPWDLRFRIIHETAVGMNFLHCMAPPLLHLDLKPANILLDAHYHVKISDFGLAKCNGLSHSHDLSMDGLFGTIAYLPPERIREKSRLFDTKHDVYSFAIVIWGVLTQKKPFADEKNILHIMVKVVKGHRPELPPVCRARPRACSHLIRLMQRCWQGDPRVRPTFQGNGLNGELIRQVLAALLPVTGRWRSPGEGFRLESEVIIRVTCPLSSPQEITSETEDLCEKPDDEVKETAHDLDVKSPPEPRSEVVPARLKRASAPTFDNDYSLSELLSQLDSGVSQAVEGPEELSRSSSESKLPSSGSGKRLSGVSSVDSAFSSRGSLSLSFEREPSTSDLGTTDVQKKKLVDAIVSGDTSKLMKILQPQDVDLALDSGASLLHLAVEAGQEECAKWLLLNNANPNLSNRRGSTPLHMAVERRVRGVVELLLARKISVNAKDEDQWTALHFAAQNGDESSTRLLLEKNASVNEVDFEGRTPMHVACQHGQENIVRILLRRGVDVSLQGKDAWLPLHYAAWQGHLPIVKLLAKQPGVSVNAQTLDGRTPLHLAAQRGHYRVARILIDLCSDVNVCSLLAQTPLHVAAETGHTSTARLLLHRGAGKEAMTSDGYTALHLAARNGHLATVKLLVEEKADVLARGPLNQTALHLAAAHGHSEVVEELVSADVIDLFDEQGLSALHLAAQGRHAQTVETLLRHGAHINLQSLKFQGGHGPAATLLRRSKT

[17] = system: Tyrosine-protein kinase ABL1 (Homo sapiens), P00519 [F317L]
[18] = system: Epidermal growth factor receptor (Homo sapiens), P00533 [T790M]
[19] = target: T2, cGMP-dependent protein kinase 1 (Homo sapiens) (UniProt Q13976)
T2 sequence (whole entry): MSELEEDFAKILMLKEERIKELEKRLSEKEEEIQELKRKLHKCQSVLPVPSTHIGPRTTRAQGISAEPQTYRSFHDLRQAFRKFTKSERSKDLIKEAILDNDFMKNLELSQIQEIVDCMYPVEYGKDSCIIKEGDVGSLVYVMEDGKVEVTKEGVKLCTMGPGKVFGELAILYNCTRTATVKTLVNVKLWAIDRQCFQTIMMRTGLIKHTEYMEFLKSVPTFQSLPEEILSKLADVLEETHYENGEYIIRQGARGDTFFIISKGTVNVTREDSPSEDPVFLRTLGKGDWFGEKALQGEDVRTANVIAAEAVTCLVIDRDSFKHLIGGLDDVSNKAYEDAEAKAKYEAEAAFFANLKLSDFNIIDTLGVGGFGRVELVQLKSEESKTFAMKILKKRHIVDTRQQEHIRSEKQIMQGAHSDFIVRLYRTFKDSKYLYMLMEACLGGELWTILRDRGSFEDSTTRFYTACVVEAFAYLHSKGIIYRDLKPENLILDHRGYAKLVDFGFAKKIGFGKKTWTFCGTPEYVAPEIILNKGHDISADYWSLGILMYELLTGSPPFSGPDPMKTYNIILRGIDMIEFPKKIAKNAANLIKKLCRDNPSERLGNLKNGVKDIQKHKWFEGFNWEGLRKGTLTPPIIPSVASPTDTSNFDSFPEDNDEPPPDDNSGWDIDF

[20] = target: SRSF protein kinase 3 (Homo sapiens) (UniProt Q9UPE1)
[21] = target: Eukaryotic translation initiation factor 2-alpha kinase 1 (Homo sapiens) (UniProt Q9BQI3)
[22] = target: Ephrin type-A receptor 6 (Homo sapiens) (UniProt Q9UF33)
[23] = system: Phosphatidylinositol 4,5-bisphosphate 3-kinase catalytic subunit alpha isoform (Homo sapiens), P42336 [C420R]
Phosphatidylinositol 4,5-bisphosphate 3-kinase catalytic subunit alpha isoform (Homo sapiens), P42336 [C420R], sequence (P42336 whole entry C420R, canonical isoform): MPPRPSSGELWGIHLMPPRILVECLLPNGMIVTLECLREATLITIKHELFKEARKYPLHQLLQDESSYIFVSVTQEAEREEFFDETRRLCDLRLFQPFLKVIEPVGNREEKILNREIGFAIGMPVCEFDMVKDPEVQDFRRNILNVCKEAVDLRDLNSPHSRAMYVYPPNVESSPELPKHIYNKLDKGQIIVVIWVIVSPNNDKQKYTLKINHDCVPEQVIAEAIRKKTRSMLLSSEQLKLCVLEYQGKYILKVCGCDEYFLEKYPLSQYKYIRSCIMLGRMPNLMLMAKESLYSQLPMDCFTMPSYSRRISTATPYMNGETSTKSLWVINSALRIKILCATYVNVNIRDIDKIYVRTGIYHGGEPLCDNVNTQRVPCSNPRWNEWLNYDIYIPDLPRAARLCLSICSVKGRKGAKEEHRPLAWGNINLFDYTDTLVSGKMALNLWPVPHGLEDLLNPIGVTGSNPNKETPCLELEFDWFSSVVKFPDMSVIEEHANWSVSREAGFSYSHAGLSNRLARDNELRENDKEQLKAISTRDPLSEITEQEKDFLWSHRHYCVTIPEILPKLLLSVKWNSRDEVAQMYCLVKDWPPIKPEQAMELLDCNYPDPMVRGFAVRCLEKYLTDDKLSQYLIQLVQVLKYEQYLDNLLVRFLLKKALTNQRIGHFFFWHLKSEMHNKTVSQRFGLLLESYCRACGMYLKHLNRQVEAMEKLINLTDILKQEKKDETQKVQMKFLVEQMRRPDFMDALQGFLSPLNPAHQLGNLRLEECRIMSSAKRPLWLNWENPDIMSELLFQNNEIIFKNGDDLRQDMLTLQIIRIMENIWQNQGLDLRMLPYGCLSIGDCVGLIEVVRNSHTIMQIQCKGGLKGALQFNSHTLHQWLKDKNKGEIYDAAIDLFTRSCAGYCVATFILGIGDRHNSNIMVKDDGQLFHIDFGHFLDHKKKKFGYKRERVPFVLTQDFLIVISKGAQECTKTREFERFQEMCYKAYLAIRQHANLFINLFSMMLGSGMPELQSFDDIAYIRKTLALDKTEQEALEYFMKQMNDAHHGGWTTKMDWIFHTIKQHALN

[24] = Compound concentration 100.0 nM
[25] = Compound concentration 1000.0 nM

Mitogen-activated protein kinase kinase kinase 20 (Homo sapiens), sequence (Q9NYL2 2-800 limits assumed): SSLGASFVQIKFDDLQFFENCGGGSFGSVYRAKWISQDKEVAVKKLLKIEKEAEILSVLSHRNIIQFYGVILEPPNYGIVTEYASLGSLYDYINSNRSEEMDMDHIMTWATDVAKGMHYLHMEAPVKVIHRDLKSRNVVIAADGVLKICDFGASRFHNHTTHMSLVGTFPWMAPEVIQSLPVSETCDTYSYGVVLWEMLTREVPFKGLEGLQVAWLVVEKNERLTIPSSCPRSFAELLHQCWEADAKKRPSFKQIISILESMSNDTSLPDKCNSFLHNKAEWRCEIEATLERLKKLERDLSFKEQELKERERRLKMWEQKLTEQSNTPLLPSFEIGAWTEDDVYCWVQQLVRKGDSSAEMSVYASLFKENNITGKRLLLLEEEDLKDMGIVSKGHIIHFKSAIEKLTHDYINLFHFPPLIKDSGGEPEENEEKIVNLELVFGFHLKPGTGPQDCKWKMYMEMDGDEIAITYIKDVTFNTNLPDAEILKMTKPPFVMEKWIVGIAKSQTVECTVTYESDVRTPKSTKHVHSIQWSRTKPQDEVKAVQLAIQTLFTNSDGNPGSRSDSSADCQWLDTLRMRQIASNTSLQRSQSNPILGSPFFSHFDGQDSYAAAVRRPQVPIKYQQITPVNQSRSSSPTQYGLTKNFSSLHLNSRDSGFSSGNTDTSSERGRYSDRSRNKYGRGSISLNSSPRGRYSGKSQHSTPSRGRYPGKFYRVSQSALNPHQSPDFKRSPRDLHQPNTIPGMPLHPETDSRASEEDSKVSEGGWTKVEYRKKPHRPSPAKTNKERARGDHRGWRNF

C[C@@H]1CN(c2cc(-c3n[nH]c4ccc(OC5(C)CC5)cc34)ncn2)C[C@H](C)O1 [MLi-2] showed a residual activity [1, 24] of 100%, a residual activity [2, 24] of 98% and a residual activity [3, 24] of 92%. The residual activity [4, 24] was 78%, the residual activity [5, 24] was 69% and the inhibition [6] was 5.96%. The residual activity [7, 24] was 80%, the residual activity [8, 24] was 90% and the residual activity [9, 24] was 74%. For the same molecule, the residual activity [10, 24] was 86%, the residual activity [11, 24] was 100% and the residual activity [12, 24] was 62%. The residual activity [13, 24] was 79%, the inhibition [14] was -0.66% and the Ki [15] was 4600 nM. The residual activity [16, 24] was 48%, the residual activity [17, 24] was 73% and the residual activity [18, 24] was 100%. It also gave a residual activity [19, 24] of 100%, a residual activity [20, 24] of 100% and a residual activity [21, 24] of 100%. For the same molecule, the residual activity [22, 24] was 90% and the residual activity [23, 24] was 72%.

In the case of C[C@@H]1CN(c2cc(-c3nn(C)c4ccc(OC5(C)CC5)cc34)ncn2)C[C@H](C)O1 [MLi-2-NC], the residual activity [1, 25] is reported as 92%, the residual activity [2, 25] is reported as 100% and the residual activity [3, 25] is reported as 100%. For the same molecule, the residual activity [4, 25] was 100%, the residual activity [5, 25] was 87% and the inhibition [6] was 46.1%. For the same molecule, the residual activity [7, 25] was 75%, the residual activity [8, 25] was 96% and the residual activity [9, 25] was 63%. It also gave a residual activity [10, 25] of 74%, a residual activity [11, 25] of 100% and a residual activity [12, 25] of 78%. For the same molecule, the residual activity [13, 25] was 68%, the inhibition [14] was 2.71% and the Ki [15] was 1070 nM. It also gave a residual activity [16, 25] of 85%, a residual activity [17, 25] of 67% and a residual activity [18, 25] of 100%. The residual activity [19, 25] was 100%, the residual activity [20, 25] was 98% and the residual activity [21, 25] was 60%. It also gave a residual activity [22, 25] of 100% and a residual activity [23, 25] of 100%.
